# Test results taken from patent US8034756B2, “Formulations with unexpected cleaning performance incorporating a biodegradable chelant” (Dow Global Technologies LLC, priority 2006, dated 2011).
# “Also recorded” adds a separate entry of the source.
# Assays:
# [1] = overall constant, log of [metal complex]/([free metal][free ligand]); cited from earlier work
# [2] = Calcium oxalate titration; type: physicochemical; settings: pH about 11.6; titrated with 0.5 M CaCl2 to first faint permanent turbidity
# Text: The primary metal present in the standard ASTM soil is calcium. One method of estimating the calcium control performance of a chelating agent is to perform a calcium titration that utilizes the tendency to produce a calcium precipitate when a given amount of chelant can no longer control any additional added calcium, thus producing a visible precipitate. Using such a titration test, one normally deems the best chelants for calcium control as those that accept the most calcium before the precipitate appears per a given unit of chelating agent. A standard titration test often employed to determine a chelant's calcium control effectiveness is the calcium oxalate titration. In this titration, standard calcium chloride titrant is added to a measured amount of chelating agent and the onset of calcium oxalate precipitate (detected as the first permanent turbidity that forms) defines the amount of calcium that can be controlled. Strong chelants accept a mole-for-mole amount of calcium, while weaker chelants will accept less than a mole-for-mole amount of calcium in this titration. […]
# [3] = overall constant, log of [metal complex]/([free metal][free ligand]); cited from earlier work; remark: listed apart in the source
# [4] = overall constant, log of [metal complex]/([free metal][free ligand]); cited from earlier work; remark: listed apart in the source
# [5] = Standard laboratory biodegradation tests (OECD 301A, 301B, 301D, 301E, 306); settings: 301E and OECD 306 seawater test
# Text: The above Log K values show the dramatically greater chelation strength of EDTA as compared to HEIDA. One would expect that the chelating agent with the greatest metal ion affinity (in this case, EDTA) would have the better performance for removing the soil containing Ca, Mg, and Fe3+.
# [6] = CSMA DCC-16 scrubber test for removal of lime soap (panel rating); settings: panel scale 0 to 5; 1 gram cleaning solution, 30 seconds, 6 cycles at 454 grams of force; formulation with 3.2% chelant salt
# Text: Black ceramic tiles (meeting ANSI standard A371.1, 4¼″ square) are soiled as directed by the procedure described in […] Specialties Manufacturers Association DCC-16, (CSMA Detergents Division Test Methods Compendium—Third Edition—May 1995—Pages I-51 to I-55) “Guidelines for Evaluating the Efficacy of Bathroom Cleaners, Part 2: Scrubber Test for Measuring the Removal of Lime Soap.”. The principal metals present in the soil mixture used in the tile cleaning test are calcium, followed by magnesium, present as their highly insoluble stearate salts (soap scum). Cleaning solution formulations are prepared as described in the previous example. To the surface of the soiled tiles on the scrubbing apparatus, 1 gram of cleaning solution is sprayed and allowed to stand for 30 seconds. The tile is then scrubbed with a pre-moistened sponge with 454 grams of force for 6 cycles (total of 12 passes over the soiled tile). The tile is then rinsed with water and allowed to air dry. Panelists judge the cleanliness of the tiles on a scale from 0 to 5 (with “0” for completely dirty and “5” for completely cleaned), and the results of the observations are averaged.
# [7] = ASTM D5343 cleaning performance of ceramic tile cleaners (number of strokes); settings: ASTM D5343 tile cleaning test
# Experimental: Cleaning formulations are prepared to contain the following (by weight): 2.62% Sodium dodecylbenzene sulfonic acid, 2.62% cocoamidopropyl betaine (Lonzaine C), 2.62% ethylene glycol butyl ether (Dowanol EB™), 3.2% of the chelant salt (except for the blank, which contains all components except the chelant), and the balance water. Thus the formulation of Example 31 contains 3.2% by weight of the chelant salt (in this case, K2HEIDA), and so on for Examples 32 and 33 which evaluate (K)1.8(Na)0.2(HEIDA), and (K)1.6(Na)0.4(HEIDA), respectively, as well as Comparative Examples 27-30 which evaluate the formulations containing Na4EDTA, Na2HEIDA, K4EDTA, and (K)1.0(Na)1.0(HEIDA), respectively.
# The cleaning ability of these compositions is determined according to ASTM D5343, “Standard Guide for Evaluating Cleaning Performance of Ceramic Tile Cleaners:” using soiled white bathroom tiles as directed by the procedure. […] 10 ml of the cleaning formulation is placed on the face of a pre-moistened sponge, then the number of strokes (under 454 grams of force) are determined to achieve soil removal of 90% or greater. The number of strokes required by each formulation to obtain 90% or greater soil removal is recorded for each cleaning formulation.
Structure (SMILES),Log K Mg [1],% Molar Chelation of calcium (max. = 100) [2] [%],Log K Ca [3],Log K Fe3+ [4],biodegradability [5],Cleaning rating (higher is better) [6],cleaning performance compared in words [7]
"O=C(O)CN(CCN(CC(=O)O)CC(=O)O)CC(=O)O [EDTA, ethylene diamine tetraacetate]",8.7,100,10.7,25.1,,,
O=C([O-])CN(CCO)CC(=O)[O-].[K+].[K+] [Example K2HEIDA],,,,,readily biodegradable,4.67 (+/−0.26),equal performance; also recorded: performs equally as well as K4EDTA
O=C([O-])CN(CCN(CC(=O)[O-])CC(=O)[O-])CC(=O)[O-].[K+].[K+].[K+].[K+] [Example K4EDTA],,,,,,3.60 (+/−0.13),
